Target: ALK2 (Homo sapiens (Human), UniProt Q04771)
Assay: ALK2 inhibition, LanthaScreen Eu Kinase Binding Assay (ThermoFisher Scientific / Life Technologies)
Settings: read-out: Measured Ki (IC50) Value for Compounds: IC50
Description: Biochemical assays to measure the inhibitory effects of the compounds were performed by ThermoFisher Scientific (Life Technologies). ALK2 inhibition was tested using LanthaScreen™ Eu Kinase Binding Assay screening protocol.

Chain of ALK2 (Q04771 21-509): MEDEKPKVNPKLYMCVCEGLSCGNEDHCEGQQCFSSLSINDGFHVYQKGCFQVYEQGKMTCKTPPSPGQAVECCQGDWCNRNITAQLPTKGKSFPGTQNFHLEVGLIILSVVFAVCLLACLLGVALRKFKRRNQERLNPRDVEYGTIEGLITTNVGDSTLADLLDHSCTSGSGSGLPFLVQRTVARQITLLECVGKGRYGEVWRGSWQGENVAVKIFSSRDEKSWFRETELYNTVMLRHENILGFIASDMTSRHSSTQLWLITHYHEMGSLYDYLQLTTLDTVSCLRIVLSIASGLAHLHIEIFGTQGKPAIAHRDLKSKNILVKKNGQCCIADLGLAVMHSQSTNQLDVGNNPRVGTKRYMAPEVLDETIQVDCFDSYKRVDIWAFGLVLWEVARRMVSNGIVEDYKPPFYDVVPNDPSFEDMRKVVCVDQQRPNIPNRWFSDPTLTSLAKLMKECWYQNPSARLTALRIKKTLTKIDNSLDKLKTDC

| IC50 [µM] | SMILES |
| --- | --- |
| < 0.1 | COc1cc(-n2cnc(Nc3nc4c(c(N5CCC[C@H]5C(N)=O)n3)CCNC4)c2)cc(OC)c1OC [Compound 194c, (S)-1-(2-((1-(3,4,5-trimethoxyphenyl)-1H-imidazol-4-yl)amino)-5,6,7,8-tetrahydropyrido[3,4-d]pyrimidin-4-yl)pyrrolidine-2-carboxamide] |
| < 0.1 | COc1cncc(-n2cnc(Nc3nc(N4CCC[C@H]4CO)nn4cccc34)c2)c1 [Compound 321b, (S)-(1-(4-((1-(5-methoxypyridin-3-yl)-1H-imidazol-4-yl)amino)pyrrolo[2,1-f][1,2,4]triazin-2-yl)pyrrolidin-2-yl)methanol] |
| < 0.1 | COc1cc(-n2cnc(Nc3nc(N4CCCC4)nc4cccnc34)c2)cc(OC)c1OC [Compound 188a, 2-(pyrrolidin-1-yl)-N-(1-(3,4,5-trimethoxyphenyl)-1H-imidazol-4-yl)pyrido[3,2-d]pyrimidin-4-amine] |
| < 0.1 | COc1cc(-n2cnc(Nc3nc(N4CCC[C@@H]4CO)nc4cc(C#N)ccc34)c2)cc(OC)c1OC [Compound 372a, (R)-2-(2-(hydroxymethyl)pyrrolidin-1-yl)-4-((1-(3,4,5-trimethoxyphenyl)-1H-imidazol-4-yl)amino)quinazoline-7-carbonitrile] |
| < 0.1 | Cc1cc(-n2cnc(Nc3nc(N4CCC[C@H]4CO)nn4cccc34)c2)ccn1 [Compound 437e, (S)-(1-(4-((1-(2-methylpyridin-4-yl)-1H-imidazol-4-yl)amino)pyrrolo[2,1-f][1,2,4]triazin-2-yl)pyrrolidin-2-yl)methanol] |
| < 0.1 | COc1cc2nc(Nc3cn(-c4cc(OC)c(OC)c(OC)c4)cn3)nc(N3CCC[C@H]3CO)c2cc1OC [Compound 221c, (S)-(1-(6,7-dimethoxy-2-((1-(3,4,5-trimethoxyphenyl)-1H-imidazol-4-yl)amino)quinazolin-4-yl)pyrrolidin-2-yl)methanol] |
| 0.1 to 1 | COc1cc(-n2cnc(Nc3cc(C(=O)N4CCCC4)cc4ccoc34)c2)cc(OC)c1OC [Compound 412a, pyrrolidin-1-yl(7-((1-(3,4,5-trimethoxyphenyl)-1H-imidazol-4-yl)amino)benzofuran-5-yl)methanone] |
| < 0.1 | COc1cc(-n2cnc(Nc3nc4c(c(N5CCC[C@H]5CO)n3)CCN(C(=O)OC(C)(C)C)C4)c2)cc(OC)c1OC [Compound 182c, (S)-tert-butyl 4-(2-(hydroxymethyl)pyrrolidin-1-yl)-2-((1-(3,4,5-trimethoxyphenyl)-1H-imidazol-4-yl)amino)-5,6-dihydropyrido[3,4-d]pyrimidine-7(8H)-carboxylate] |
| < 0.1 | COc1cc(-n2cnc(Nc3nc(N4CCC[C@H]4CO)nc4sc(CN5CCN(c6ccccn6)CC5)cc34)c2)cc(OC)c1OC [Compound 108b, (S)-(1-(6-((4-(pyridin-2-yl)piperazin-1-yl)methyl)-4-((1-(3,4,5-trimethoxyphenyl)-1H-imidazol-4-yl)amino)thieno[2,3-d]pyrimidin-2-yl)pyrrolidin-2-yl)methanol] |
| < 0.1 | OC[C@@H]1CCCN1c1nc(Nc2cn(-c3ccc(F)cc3)cn2)c2cccn2n1 [Compound 25c, (S)-(1-(4-((1-(4-fluorophenyl)-1H-imidazol-4-yl)amino)pyrrolo[2,1-f][1,2,4]triazin-2-yl)pyrrolidin-2-yl)methanol] |
| < 0.1 | COc1cc(-n2cnc(Nc3nc(N4CCC[C@@H]4C(N)=O)nc4cc(C(F)(F)F)ccc34)c2)cc(OC)c1OC [Compound 287a, (R)-1-(7-(trifluoromethyl)-4-((1-(3,4,5-trimethoxyphenyl)-1H-imidazol-4-yl)amino)quinazolin-2-yl)pyrrolidine-2-carboxamide] |
| < 0.1 | COc1cc(-n2cnc(Nc3nc4c(c(N5CCC[C@H]5CO)n3)CNCC4)c2)cc(OC)c1OC [Compound 181d, (S)-(1-(2-((1-(3,4,5-trimethoxyphenyl)-1H-imidazol-4-yl)amino)-5,6,7,8-tetrahydropyrido[4,3-d]pyrimidin-4-yl)pyrrolidin-2-yl)methanol] |
| < 0.1 | COc1cc(-n2cnc(Nc3nc(N4CC[C@H](CO)C4)c4cccn4n3)c2)cc(OC)c1OC [Compound 333b, (S)-(1-(2-((1-(3,4,5-trimethoxyphenyl)-1H-imidazol-4-yl)amino)pyrrolo[2,1-f][1,2,4]triazin-4-yl)pyrrolidin-3-yl)methanol] |
| < 0.1 | Cn1cnc(Nc2nc(N3CCCC3c3ccccn3)nn3cccc23)c1 (centres unmarked) [Compound 4c, N-(1-methyl-1H-imidazol-4-yl)-2-(2-(pyridin-2-yl)pyrrolidin-1-yl)pyrrolo[1,2-f][1,2,4]triazin-4-amine] |
| < 0.1 | OCc1cc2c(Nc3cn(-c4ccccc4)cn3)nc(N3CCC[C@H]3CO)nc2s1 [Compound 70f, (S)-(1-(6-(hydroxymethyl)-4-((1-phenyl-1H-imidazol-4-yl)amino)thieno[2,3-d]pyrimidin-2-yl)pyrrolidin-2-yl)methanol] |
| < 0.1 | COc1cc(-n2cnc(Nc3nc(N4CCC[C@H]4CO)c4cc[nH]c4n3)c2)cc(OC)c1OC [Compound 159c, (S)-(1-(2-((1-(3,4,5-trimethoxyphenyl)-1H-imidazol-4-yl)amino)-7H-pyrrolo[2,3-d]pyrimidin-4-yl)pyrrolidin-2-yl)methanol] |
| < 0.1 | COc1cc(-n2cnc(Nc3nc(N4CCC[C@H]4CO)c4cccc(CN5CCCCC5)c4n3)c2)cc(OC)c1OC [Compound 335d, (S)-(1-(8-(piperidin-1-ylmethyl)-2-((1-(3,4,5-trimethoxyphenyl)-1H-imidazol-4-yl)amino)quinazolin-4-yl)pyrrolidin-2-yl)methanol] |
| < 0.1 | COc1cc(-n2cnc(Nc3nc(N4CCC[C@H]4C(N)=O)nc4c3COC4)c2)cc(OC)c1OC [Compound 311a, (S)-1-(4-((1-(3,4,5-trimethoxyphenyl)-1H-imidazol-4-yl)amino)-5,7-dihydrofuro[3,4-d]pyrimidin-2-yl)pyrrolidine-2-carboxamide] |
| < 0.1 | CNC(=O)[C@@H]1CCCN1c1nc(Nc2cn(-c3cc(OC)c(OC)c(OC)c3)cn2)c2occc2n1 [Compound 252a, (S)—N-methyl-1-(4-((1-(3,4,5-trimethoxyphenyl)-1H-imidazol-4-yl)amino)furo[3,2-d]pyrimidin-2-yl)pyrrolidine-2-carboxamide] |
| < 0.1 | OC[C@@H]1CCCN1c1nc(Nc2cn(-c3ccc4[nH]ccc4c3)cn2)c2cccn2n1 [Compound 67c, (S)-(1-(4-((1-(1H-indol-5-yl)-1H-imidazol-4-yl)amino)pyrrolo[2,1-f][1,2,4]triazin-2-yl)pyrrolidin-2-yl)methanol] |
| < 0.1 | COc1cc(-n2cnc(Nc3nc(N4CCN(C)CC4)nc4ccoc34)c2)cc(OC)c1OC [Compound 235a, 2-(4-methylpiperazin-1-yl)-N-(1-(3,4,5-trimethoxyphenyl)-1H-imidazol-4-yl)furo[3,2-d]pyrimidin-4-amine] |
| < 0.1 | COc1cc(-n2cnc(Nc3nc(N4CCC[C@@H]4CO)nc4cc(C(F)(F)F)ccc34)c2)cc(OC)c1OC [Compound 293a, (R)-(1-(7-(trifluoromethyl)-4-((1-(3,4,5-trimethoxyphenyl)-1H-imidazol-4-yl)amino)quinazolin-2-yl)pyrrolidin-2-yl)methanol] |
| < 0.1 | COc1cc(-n2cnc(Nc3nc(N4CCC[C@H]4CO)nc4cc(N5CCCCC5)ccc34)c2)cc(OC)c1OC [Compound 358a, (S)-(1-(7-(piperidin-1-yl)-4-((1-(3,4,5-trimethoxyphenyl)-1H-imidazol-4-yl)amino)quinazolin-2-yl)pyrrolidin-2-yl)methanol] |

— US11661426B2, “Imidazole-containing inhibitors of ALK2 kinase” (BioCryst Pharmaceuticals, Inc., priority 2017, dated 2023)
